Data reported in US20110053995A1, “BENZENESULFONANILIDE COMPOUND INHIBITORS OF UREA TRANSPORTERS” (THE REGENTS OF THE UNIVERSITY OF CALIFORNIA, priority 2006, published 2011).
Like-named read-outs stand apart in the source and are kept apart here.

Assays:
UT-B = target: T1, UT-B (Homo sapiens, UniProt Q13336); test: RBC lysis assay, human RBCs; assay type: cell-based
T1 construct: a red blood cell (i.e., erythrocyte), which endogenously expresses the urea transporter UT-B; endogenous in cells; host or cells: human red blood cells (whole venous blood, single donor)
T1 sequence (Q13336 1-389): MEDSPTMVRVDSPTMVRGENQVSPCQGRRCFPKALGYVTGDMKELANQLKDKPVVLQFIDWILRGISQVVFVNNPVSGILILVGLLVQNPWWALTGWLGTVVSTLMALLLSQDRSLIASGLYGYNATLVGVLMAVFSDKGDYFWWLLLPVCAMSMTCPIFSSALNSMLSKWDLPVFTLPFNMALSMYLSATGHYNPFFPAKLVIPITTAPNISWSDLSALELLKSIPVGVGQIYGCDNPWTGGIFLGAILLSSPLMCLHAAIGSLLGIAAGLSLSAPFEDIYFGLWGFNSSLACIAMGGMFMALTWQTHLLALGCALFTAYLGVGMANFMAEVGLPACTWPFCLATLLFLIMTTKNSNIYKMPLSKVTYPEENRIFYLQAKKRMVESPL
Excerpt: Vigorous mixing was achieved by repeated pipetting.

rat UT-A1 = target: T2, rat UT-A1 (Rattus norvegicus, UniProt Q62668); test: UT-A1-facilitated urea flux across MDCK-UT-A1 cell layers; assay type: cell-based; details: for inhibition of rat UT-A1: 25 μM
T2 construct: expressed in transfected cells; host or cells: MDCK cells (gift of Dr. Jeffrey Sands, Emory University)
T2 sequence (Q62668 1-929): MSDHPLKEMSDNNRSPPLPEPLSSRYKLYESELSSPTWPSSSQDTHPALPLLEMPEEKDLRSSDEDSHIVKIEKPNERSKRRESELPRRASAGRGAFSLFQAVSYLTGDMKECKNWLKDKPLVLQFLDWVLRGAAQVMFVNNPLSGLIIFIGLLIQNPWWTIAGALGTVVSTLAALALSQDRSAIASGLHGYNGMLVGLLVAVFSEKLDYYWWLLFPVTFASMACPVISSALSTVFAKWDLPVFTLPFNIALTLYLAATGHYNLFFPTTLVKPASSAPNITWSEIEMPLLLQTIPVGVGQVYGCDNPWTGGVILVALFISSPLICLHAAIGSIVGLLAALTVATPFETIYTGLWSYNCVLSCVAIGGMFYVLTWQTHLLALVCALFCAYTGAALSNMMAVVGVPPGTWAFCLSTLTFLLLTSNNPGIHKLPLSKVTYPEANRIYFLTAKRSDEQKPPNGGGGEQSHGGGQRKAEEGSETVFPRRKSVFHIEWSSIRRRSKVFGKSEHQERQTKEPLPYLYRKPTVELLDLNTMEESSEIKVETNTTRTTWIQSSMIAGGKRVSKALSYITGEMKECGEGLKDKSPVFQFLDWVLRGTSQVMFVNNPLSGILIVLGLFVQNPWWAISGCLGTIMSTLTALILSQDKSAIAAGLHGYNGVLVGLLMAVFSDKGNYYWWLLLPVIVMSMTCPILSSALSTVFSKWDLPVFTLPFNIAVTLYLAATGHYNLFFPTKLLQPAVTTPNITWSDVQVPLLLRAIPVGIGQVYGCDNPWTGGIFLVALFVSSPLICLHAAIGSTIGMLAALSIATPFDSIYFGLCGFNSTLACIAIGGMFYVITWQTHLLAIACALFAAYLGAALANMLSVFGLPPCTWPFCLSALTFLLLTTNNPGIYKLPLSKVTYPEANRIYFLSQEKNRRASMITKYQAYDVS
Procedure: Concentration-inhibition studies were performed to study the effect of the active mouse UT-B inhibitors on urea transport by UT-A. The amino acid sequences of UT-B and UT-A urea transporter isoforms share significant similarity. The cells used in these studies were MDCK cells that expressed rat UT-A1. MDCK-UT-A1-expressing cells were grown on collagen-coated porous filters until they were electrically tight, at which point 15 mM urea was introduced into buffer bathing the basolateral cell surface.
MDCK cells stably transfected with rat UT-A1 (MDCK-UT-A1) (Fröhlich et al., Am J Physiol. in press; Fröhlich et al., Am. J. Physiol. Cell Physiol. 286:C1264-70 (2004). Epub on Jan. 28, 2004) were generously provided by Dr. Jeffrey Sands (Emory University School of Medicine, Atlanta, Ga.). Cells were grown in Dulbecco's Modified Eagle Medium (DMEM) with bicarbonate and supplemented with 10% fetal bovine serum (FBS), 25 mM HEPES buffer, penicillin G (100 U/mL), streptomycin (100 μg/mL) and hygromycin (500 μg/mL). For determining urea flux, cells were grown on 12-mm collagen-coated TRANSWELL inserts (0.4 μm pore size; Costar) as described (Fröhlich et al., Am J Physiol. in press; Fröhlich et al., 2004, supra). The TRANSWELL inserts were incubated in hygromycin-free medium for 1 hr in a 5% CO2 tissue culture incubator (37° C.), and then 2×10^5 cells/cm^2 were loaded onto each insert. Cells were used after culturing the cells for 4 days in hygromycin-free medium, at which time they formed tight monolayers (transepithelial resistance 500-600 Ω·cm^2).
UT-A1-facilitated urea flux in the basolateral-to-apical direction across unstimulated and forskolin-stimulated MDCK-UT-A1 cell layers was measured in response to a 15-mM urea gradient. Experiments were carried out in 12-well plates in which PBS, containing either DMSO vehicle or forskolin, with or without UT-B inhibitor, added to both the apical-facing (0.2 mL) and basal-facing (1 mL) surfaces of cells on the porous filters. Cultures were incubated in the absence of urea for 30 min at 37° C. Then, the basal-facing solution was replaced with PBS (containing same components) with 15 mM urea. Five μL samples of apical fluid were collected at specified times during incubation at 37° C., and urea concentration was determined using a commercial kit based on chromogenic urea complexation at 520-nm wavelength (Quantichrom™ Urea Assay Kit, BioAssay Systems, Hayward, Calif.). Forskolin (10 μM), with or without UT-B transport inhibitors, was added from 1000× DMSO stock solutions (0.2% final DMSO content). Inhibition of UT-A1-mediated transport was defined as % inhibition=100% (Aforsk−Atest)/(Aforsk−Aphlor). Aforsk, and Aphlor were averaged absorbance values (at 520 nm) for cultures treated with forskolin and forskolin+phloretin, respectively, and Atest were values from cultures treated with forskolin+test compound.

RBCs from wild-type mice = test: Osmotic water permeability, RBCs from wild-type mice; assay type: cell-based, mouse
Procedure: FIGS. 8A-B illustrate UT-B-facilitated water transport by ‘chemical UT-B knock-out’. Osmotic water permeability was measured from the time course of RBC volume in response to a 250-mM inwardly directed sucrose gradient. FIG. 8A presents representative traces of mouse RBC water permeability performed at 10° C., with genotypes and conditions indicated. Inhibitors ureainh-201 and ureainh-302 were used at 25 μM. FIG. 8B presents osmotic water permeability coefficients (Pf) from experiments as illustrated in FIG. 8A (±SE, 3-7 curves per group of RBCs pooled from 4 mice per genotype). *, P<0.01 compared with no inhibitor; #, P<0.01 compared with wild-type (no inhibitor).
RBC urea and water permeabilities were assayed by stopped-flow light scattering using a Hi-Tech Sf-51 instrument (Wiltshire, UK). For measurement of urea permeability, dilutions of whole blood (human or mouse; see Example 1) in PBS (hematocrit: approximately 0.5%) were incubated with test compounds for 5 min and then subjected to a 250-mM inwardly directed gradient of urea. After an initial osmotic shrinking phase, the kinetics of increasing cell volume caused by urea influx were measured as the time-course of 90° scattered light intensity at 530 nm, with increasing cell volume resulting in reduced scattered light intensity. As a positive control, 0.7 mM phloretin was added to the RBC suspension prior to stopped-flow experiments. Measurements of water permeability were carried out similarly, with sucrose (cell-impermeant) used instead of urea to establish a 250-mM osmotic gradient. As a positive control, HgCl2 (0.3 mM) was added to the RBC suspension prior to stopped-flow measurements. Osmotic water permeability coefficients (Pf) were computed from light scattering data as described (van Hoek et al., J Biol Chem. 267:18267-69 (1992)).
This example describes chemical knock-out of UT-B by UT-B inhibitors in RBCs and the effect on UT-B-facilitated Water transport. […] Osmotic water permeability was measured by stopped-flow light scattering in RBCs from wild-type and AQP1-null mice as shown in FIG. 8A. […] AQP1-null RBCs had greater than 5-fold reduced Pf compared to wild-type RBCs.

UT = details: non-specific membrane intercalating agent; cited from earlier work
[1] = Table 2, read-out: EC50 (μM), UT-B inhibitory potency
[2] = lysis assay, FIG. 5B, read-out: apparent EC50

| Structure (SMILES) | EC50 (UT-B; [1]) [µM] | further results |
| --- | --- | --- |
| COc1ccc(OC)c(NS(=O)(=O)c2cccc(Br)c2)c1 [ureainh-203, 3-bromo-N-(2,5-dimethoxyphenyl) benzenesulfonamide] | 0.7 | – |
| CCn1c(NCc2cc(Br)ccc2O)nc2ccccc21 [ureainh-404] | – | EC50 (UT-B; [2]): 0.4 µM; inhibition of rat UT-A1 (rat UT-A1): Neither ureainh-201 at 25 μM nor ureainh-404 at 25 μM significantly inhibited |
| O=C(CCc1ccc(O)cc1)c1c(O)cc(O)cc1O [phloretin, reference compound] | – | UT-A1-facilitated urea transport (rat UT-A1; phloretin 0.7 mM, forskolin-stimulated): inhibited; reduction in Pf (RBCs from wild-type mice; 0.7 mM): small but significant reduction; effect on water transport (RBCs from wild-type mice; inhibitors 25 μM, phloretin 0.7 mM, 10° C.): little effect on water transport; concentration exhibiting activity (UT): > 0.5 mM |
| NC(=O)c1ccc(S(=O)(=O)Nc2ccc3c(c2)OCCO3)cc1 [ureainh-207, 4-(N-(2,3-dihydrobenzo [b][1,4]dioxin-6-yl)sulfamoyl)benzamide] | 2 | – |
| COc1cccc(S(=O)(=O)Nc2ccc3c(c2)OCCO3)c1 [ureainh-209, N-(2,3-dihydrobenzo [b][1,4]dioxin-6-yl)-3-Methoxybenzenesulfonamide] | 6 | – |
| Cc1cc(C)cc(S(=O)(=O)Nc2ccc3c(c2)OCCO3)c1 [ureainh-208, N-(2,3-dihydrobenzo [b][1,4]dioxin-6-yl)-3,5-dimethylbenzenesulfonamide] | 4 | – |
| COc1cc(OC)cc(S(=O)(=O)Nc2cc(OC)ccc2OC)c1 [ureainh-201, N-(2,5-dimethoxyphenyl)-3,5-dimethoxybenzene sulfonamide] | – | EC50 (UT-B; [2]): 0.3 µM; inhibition of rat UT-A1 (rat UT-A1): Neither ureainh-201 at 25 μM nor ureainh-404 at 25 μM significantly inhibited |
| COc1ccc(OC)c(NS(=O)(=O)c2ccc(Br)cc2)c1 [ureainh-202, 4-bromo-N-(2,5-dimethoxyphenyl) benzenesulfonamide] | 0.4 | – |

The next lines start with results.

| EC50 (UT-B; [1]) [µM] | Structure (SMILES) | further results |
| --- | --- | --- |
| 10 | Cc1ccc(S(=O)(=O)Nc2ccc3c(c2)OCCO3)cc1C [ureainh-212, N-(2,3-dihydrobenzo[b][1,4]dioxin-6-yl)-3,4-dimethylbenzenesulfonamide] | – |
| 4 | Cn1c(=O)oc2cc(NS(=O)(=O)c3cccc(C(F)(F)F)c3)ccc21 [ureainh-217, N-(3-methyl-2-oxo-2,3-dihydrobenzo[d]oxazol-6-yl)-3-(trifluoromethyl) Benzenesulfonamide] | – |
| 10 | O=S(=O)(Nc1ccc2c(c1)OCCO2)c1ccc2ccccc2c1 [ureainh-213, N-(2,3-dihydrobenzo[b][1,4]dioxin-6-yl)naphthalene-2-sulfonamide] | – |
| 6 | CC(=O)c1cccc(S(=O)(=O)Nc2ccc3c(c2)OCCO3)c1 [ureainh-210, 3-acetyl-N-(2,3-dihydrobenzo [b][1,4]dioxin-6-yl) Benzenesulfonamide] | – |
| 8 | O=S(=O)(Nc1ccc2c(c1)OCCO2)c1cccc(Br)c1 [ureainh-211, 3-bromo-N-(2,3-dihydrobenzo[b][1,4]dioxin-6-y])benzenesulfonamide] | – |
